# Active and inactive are the calls of the source. The rule behind the calls is not given here.
# Key:
# Toll-like receptor 4 = Toll-like receptor 4 (Homo sapiens, UniProt O00206); assay: Antagonist activity at TLR4 (unknown origin) expressed in human AD293 cells assessed as inhibition of LPS/ATP-stimulated TLR4/NF-kB signaling pathway at 10 uM after 16 hrs by luciferase reporter gene assay; type: cell-based
# AD293 = assay: Cytotoxicity against human AD293 cells assessed as reduction in cell viability at 10 uM after 24 hrs by methylene blue dye based spectrophotometric method; details: ad293, 24 h
# Chain of Toll-like receptor 4 (O00206 whole entry): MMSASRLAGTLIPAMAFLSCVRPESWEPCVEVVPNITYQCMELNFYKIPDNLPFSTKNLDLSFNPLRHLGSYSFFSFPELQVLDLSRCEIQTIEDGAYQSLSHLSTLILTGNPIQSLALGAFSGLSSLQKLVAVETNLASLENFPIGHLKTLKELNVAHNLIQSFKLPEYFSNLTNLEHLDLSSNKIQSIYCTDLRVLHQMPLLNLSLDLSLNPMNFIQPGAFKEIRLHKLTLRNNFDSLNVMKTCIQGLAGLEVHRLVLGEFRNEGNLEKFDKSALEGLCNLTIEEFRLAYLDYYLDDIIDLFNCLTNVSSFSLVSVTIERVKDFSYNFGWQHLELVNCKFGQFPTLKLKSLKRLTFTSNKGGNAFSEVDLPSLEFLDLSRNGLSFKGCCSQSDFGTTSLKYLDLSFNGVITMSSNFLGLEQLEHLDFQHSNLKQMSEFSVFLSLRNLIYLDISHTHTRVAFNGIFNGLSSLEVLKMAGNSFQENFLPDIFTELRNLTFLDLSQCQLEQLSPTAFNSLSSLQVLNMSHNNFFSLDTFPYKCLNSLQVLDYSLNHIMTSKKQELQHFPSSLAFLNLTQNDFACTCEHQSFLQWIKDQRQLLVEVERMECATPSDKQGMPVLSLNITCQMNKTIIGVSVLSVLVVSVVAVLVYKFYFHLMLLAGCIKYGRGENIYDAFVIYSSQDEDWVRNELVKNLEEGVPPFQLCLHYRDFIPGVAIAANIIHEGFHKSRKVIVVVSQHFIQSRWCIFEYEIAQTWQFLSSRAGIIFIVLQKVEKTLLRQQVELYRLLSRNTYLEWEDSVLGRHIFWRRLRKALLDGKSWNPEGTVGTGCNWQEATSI
SMILES,inhibition (Toll-like receptor 4),Activity (AD293)
CC(=O)[C@]1(O)CC[C@@]2(O)[C@]1(C)[C@H](OC(=O)c1ccc(O)cc1)C[C@@H]1[C@@]3(C)CC[C@H](O)CC3=CC[C@]12O,inactive,Toxic
CC(=O)[C@]1(O)CC[C@@]2(O)[C@]1(C)[C@H](OC(=O)/C=C/c1ccccc1)C[C@@H]1[C@@]3(C)CC[C@H](OC(=O)/C=C/c4ccc([N+](=O)[O-])cc4)CC3=CC[C@]12O,inactive,Toxic
C[C@H]1O[C@@H]2C[C@@H]3[C@@]4(C)CC[C@H](OC(=O)/C=C/c5ccc([N+](=O)[O-])cc5)CC4=CC[C@@]3(O)[C@@]3(O)CC[C@]1(OC(=O)/C=C/c1ccccc1)[C@@]23C,inactive,Toxic
COc1cc(/C=C/C(=O)O[C@H]2CC[C@@]3(C)C(=CC[C@]4(O)[C@@H]3C[C@@H](OC(=O)/C=C/c3ccccc3)[C@@]3(C)[C@]4(O)CC[C@@]3(O)C(C)=O)C2)cc(OC)c1OC,inactive,Toxic
CC(=O)[C@]1(OC(=O)c2cccc3ccccc23)CC[C@@]2(O)[C@]1(C)[C@H](OC(=O)c1ccc(O)cc1)C[C@@H]1[C@@]3(C)CC[C@H](OC(=O)c4cccc5ccccc45)CC3=CC[C@]12O,inactive,Toxic
C[C@H]1O[C@@H]2C[C@@H]3[C@@]4(C)CC[C@H](O)CC4=CC[C@@]3(O)[C@@]3(O)CC[C@]1(OC(=O)/C=C/c1ccccc1)[C@@]23C,inactive,Toxic
CC(=O)[C@]1(O)CC[C@@]2(O)[C@]1(C)[C@H](OC(=O)c1ccc(O)cc1)C[C@@H]1[C@@]3(C)CC[C@H](Br)CC3=CC[C@]12O,inactive,Toxic
CC(=O)[C@]1(OC(=O)/C=C/c2ccc([N+](=O)[O-])cc2)CC[C@@]2(O)[C@]1(C)[C@H](OC(=O)c1ccc(O)cc1)C[C@@H]1[C@@]3(C)CC[C@H](OC(=O)/C=C/c4ccc([N+](=O)[O-])cc4)CC3=CC[C@]12O,inactive,Toxic
CCC(=O)O[C@H]1CC[C@@]2(C)C(=CC[C@]3(O)[C@@H]2C[C@@H](OC(=O)c2ccc(O)cc2)[C@@]2(C)[C@]3(O)CC[C@@]2(OC(=O)CC)C(C)=O)C1,inactive,Toxic
CC(=O)[C@]1(O)CC[C@@]2(O)[C@]1(C)[C@H](OC(=O)/C=C(\C)C(C)C)C[C@@H]1[C@@]3(C)CC[C@H](O)CC3=CC[C@]12O [CAUDATIN],inactive,Toxic
CC(O)[C@]1(O)CC[C@@]2(O)[C@]1(C)[C@H](OC(=O)c1ccc(O)cc1)C[C@@H]1[C@@]3(C)CC[C@H](O)CC3=CC[C@]12O (some centres not stated),inactive,Toxic
CC(=O)[C@]1(O)CC[C@@]2(O)[C@]1(C)[C@H](OC(=O)c1ccc(O)cc1)C[C@@H]1[C@@]3(C)CCC(=O)CC3=CC[C@]12O,inactive,Toxic
CC(=O)[C@]1(OC(=O)c2ccc(Cl)nc2)CC[C@@]2(O)[C@]1(C)[C@H](OC(=O)c1ccc(O)cc1)C[C@@H]1[C@@]3(C)CC[C@H](OC(=O)c4ccc(Cl)nc4)CC3=CC[C@]12O,inactive,Toxic
CC(=O)[C@]1(OS(C)(=O)=O)CC[C@@]2(O)[C@]1(C)[C@H](OC(=O)c1ccc(O)cc1)C[C@@H]1[C@@]3(C)CC[C@H](OS(C)(=O)=O)CC3=CC[C@]12O,inactive,Toxic
C[C@H]1O[C@@H]2C[C@@H]3[C@@]4(C)CC[C@H](OC(=O)/C=C/c5ccccc5)CC4=CC[C@@]3(O)[C@@]3(O)CC[C@]1(OC(=O)/C=C/c1ccccc1)[C@@]23C,inactive,Toxic
COc1ccc(/C=C/C(=O)O[C@H]2CC[C@@]3(C)C(=CC[C@]4(O)[C@@H]3C[C@H]3O[C@H](C)[C@]5(OC(=O)/C=C/c6ccccc6)CC[C@@]4(O)[C@]35C)C2)cc1,inactive,Toxic

# Reference: ChEMBL document CHEMBL4033685, “C21-steroidal pregnane sapogenins and their derivatives as anti-inflammatory agents” (Bioorg Med Chem, 2017)
